Source: PMC5111045, “Modulation of NMDA channel gating by Ca^2+ and Cd^2+ binding to the external pore mouth” (Scientific Reports, 2016)
Values joined by “and” are separate entries in the source; they are usually repeats but may differ in a detail not shown here. Identical values can stand only once. Like-named read-outs stand apart in the source and are kept apart here.

Experiments:
[1] = molecular target: T1, NMDA receptor channel (GluN1a variant/GluN2B), wild-type (Rattus norvegicus, UniProt P35439+Q00960); assay: Outside-out patch recordings of NMDA receptor currents, wild-type channel expressed in Xenopus oocytes; format: cell-based
T1 construct: expressed in transfected cells; host or cells: Xenopus laevis oocytes (cRNA injection)
Description: (§1) The rat GluN1a variant and GluN2B cDNA clones were used in this study. Point mutations were made by site-directed mutagenesis using the QuickChange Site-Directed Mutagenesis kit (Stratagene, La Jolla, CA). Mutations were verified by DNA sequencing to ensure the lack of any inadvertent mutations. The capped cRNA transcripts were then synthesized using T7 and T3 mMESSAGE mMACHINE transcription kits (Ambion, Austin, TX), and were stored at −80 °C.
(§2) This study was carried out in accordance with the ethical information guidelines of the National Taiwan University College of Medicine. The protocols for the care and use of animals were approved by the National Taiwan University College of Medicine and College of Public Health Institutional Animal Care and Use Committee (IACUC). All efforts were made to minimize animal suffering. Adult female Xenopus laevis were anesthetized, and ovarian lobes containing stage V or VI oocytes were removed. Oocytes were dispersed after manual disruption of the egg sac, and were digested for 1 hr with collagenase type I (2 mg/ml) to remove the follicular layer. A mixture of GluN1a variant and GluN2B cRNAs with a ratio of 1:5 (i.e., 0.1–4 ng of GluN1a variant and 0.5–20 ng of GluN2B) (Kashiwagi et al. 2002) was injected into oocytes. Oocytes were maintained in the culture medium (96 mM NaCl, 2 mM KCl, 1.8 mM MgCl2, 1.8 mM CaCl2, 5 mM HEPES, and 50 ug/ml gentamycin, pH 7.6) at 18 °C for 2–3 days before electrophysiological recordings.
Oocytes were placed in a recording chamber containing Mg^2+-free bath solution (150 mM NaMeSO3, 5 mM NaCl, and 10 mM HEPES; pH 7.4). Outside-out patch recordings were obtained using fire-polished pipettes pulled from borosilicate capillaries (outer diameter, 1.55–1.60 mm; Hilgenberg, Malsfeld, Germany). Recording pipettes ([…]) were filled with the pipette solution containing 150 mM NaMeSO3, 5 mM NaCl, 5 mM EGTA, and 10 mM HEPES (pH 7.4). A seal was formed, and the outside-out patch configuration was obtained in Tyrode’s solution (150 mM NaCl, 4 mM KCl, 2 mM MgCl2, 2 mM CaCl2, and 10 mM HEPES; pH 7.4). The patch was then lifted from the bottom of the chamber and moved in front of a set of “theta glass” tubes (2.0 mm outer diameter pulled to an opening of ~300 μm in width; Warner Instrument, Hamden, CT) emitting external recording solutions. The standard external solution was Mg^2+-free Ca^2+-free Tyrode’s solution (pH 7.4), but 2 mM Ca^2+ or 0.1–100 μM Cd^2+ may be added to the external recording solution as specified in each different experimental condition. The glass-tube holder was connected to a stepper motor (SF-77B perfusion system, Warner Instrument) to achieve fast switch for rapid solution change. Drugs and salts were purchased from Sigma (St. Louis, MO). NMDA, glycine, and Cd^2+ were dissolved in water to make 100, 100, and 10 mM stock solutions, respectively. The stock solutions were then diluted into the external recording solution to make 1 to 100 μM Cd^2+, 1 to 300 μM NMDA, and 30 μM glycine. The NMDA currents were recorded at a membrane potential of −70 mV and at room temperature (~25 °C) with an […] amplifier, filtered at 1 kHz with a four-pole Bessel filter, digitized at 500 μs intervals, and stored using a Digidata-1322A analog/digital interface along with the pCLAMP software (all from MDS Analytical Technologies, Sunnyvale, CA). To plot the activation and the desensitization curves, a patch was moved from the NMDA- and glycine-free external solution to the external solution containing 0 to 100 μM NMDA and 30 μM glycine for 3 s (the desensitization prepulse), and then moved to another external solution containing 300 μM NMDA and 30 μM glycine for 3 s (the test pulse) before being moved back to the NMDA-free external solution again. The amplitude of the sustained currents in the desensitization prepulse in each different concentration of NMDA is normalized to the maximal current and plotted against the NMDA concentration to obtain the activation curve. […]

[2] = molecular target: E661A mutant NMDA channel; assay: Outside-out patch recordings, E661A mutant NMDA channel; format: cell-based, rat; conditions: Hill coefficient of 1 assumed
Description: as §1
(§3) This study was carried out in accordance with the ethical information guidelines of the National Taiwan University College of Medicine. The protocols for the care and use of animals were approved by the National Taiwan University College of Medicine and College of Public Health Institutional Animal Care and Use Committee (IACUC). All efforts were made to minimize animal suffering. […]
(§4) Oocytes were placed in a recording chamber containing Mg^2+-free bath solution (150 mM NaMeSO3, 5 mM NaCl, and 10 mM HEPES; pH 7.4). […] The NMDA currents were recorded at a membrane potential of −70 mV and at room temperature (~25 °C) with an […] amplifier, filtered at 1 kHz with a four-pole Bessel filter, digitized at 500 μs intervals, and stored using a Digidata-1322A analog/digital interface along with the pCLAMP software (all from MDS Analytical Technologies, Sunnyvale, CA). […]

[3] = molecular target: E662A mutant NMDA channel; assay: Outside-out patch recordings, E662A mutant NMDA channel; format: cell-based, rat; conditions: Hill coefficient of 1 assumed
Description: as §1, §3, §4

[4] = molecular target: T2, E661AE662A double mutant NMDA channel (Rattus norvegicus, UniProt P35439+Q00960, E661A/E662A); assay: Outside-out patch recordings, E661AE662A double mutant NMDA channel; format: cell-based; conditions: for coupling coefficient ((KdWT × KdE661AE662A)/(KdE661A × KdE662A)), double mutant cycle analysis: mutations E661A and E662A; for Kd: E661AE662A, Hill coefficient of 1 assumed
T2 construct: expressed in transfected cells; host or cells: Xenopus laevis oocytes (cRNA injection)
Description: as §1, §2
Oocytes were placed in a recording chamber containing Mg^2+-free bath solution (150 mM NaMeSO3, 5 mM NaCl, and 10 mM HEPES; pH 7.4). Outside-out patch recordings were obtained using fire-polished pipettes pulled from borosilicate capillaries (outer diameter, 1.55–1.60 mm; Hilgenberg, Malsfeld, Germany). Recording pipettes ([…]) were filled with the pipette solution containing 150 mM NaMeSO3, 5 mM NaCl, 5 mM EGTA, and 10 mM HEPES (pH 7.4). A seal was formed, and the outside-out patch configuration was obtained in Tyrode’s solution (150 mM NaCl, 4 mM KCl, 2 mM MgCl2, 2 mM CaCl2, and 10 mM HEPES; pH 7.4). The patch was then lifted from the bottom of the chamber and moved in front of a set of “theta glass” tubes (2.0 mm outer diameter pulled to an opening of ~300 μm in width; Warner Instrument, Hamden, CT) emitting external recording solutions. The standard external solution was Mg^2+-free Ca^2+-free Tyrode’s solution (pH 7.4), but 2 mM Ca^2+ or 0.1–100 μM Cd^2+ may be added to the external recording solution as specified in each different experimental condition. The glass-tube holder was connected to a stepper motor (SF-77B perfusion system, Warner Instrument) to achieve fast switch for rapid solution change. Drugs and salts were purchased from Sigma (St. Louis, MO). NMDA, glycine, and Cd^2+ were dissolved in water to make 100, 100, and 10 mM stock solutions, respectively. The stock solutions were then diluted into the external recording solution to make 1 to 100 μM Cd^2+, 1 to 300 μM NMDA, and 30 μM glycine. The NMDA currents were recorded at a membrane potential of −70 mV and at room temperature (~25 °C) with an […] amplifier, filtered at 1 kHz with a four-pole Bessel filter, digitized at 500 μs intervals, and stored using a Digidata-1322A analog/digital interface along with the pCLAMP software (all from MDS Analytical Technologies, Sunnyvale, CA). […]

[5] = molecular target: T3, D658A mutant NMDA channel (Rattus norvegicus, UniProt P35439+Q00960, D658A); assay: Outside-out patch recordings, D658A mutant NMDA channel; format: cell-based; conditions: 30 μM Cd2+ between NMDA pulses; P = 0.034
T3 construct: expressed in transfected cells; host or cells: Xenopus laevis oocytes (cRNA injection)
Description: as §1, §3, §4

[6] = molecular target: T4, D658AE661AE662A triple mutant NMDA channel (Rattus norvegicus, UniProt P35439+Q00960, D658A/E661A/E662A); assay: Outside-out patch recordings, D658AE661AE662A triple mutant NMDA channel; format: cell-based
T4 construct: expressed in transfected cells; host or cells: Xenopus laevis oocytes (cRNA injection)
Description: as §1, §3, §4

[7] = molecular target: T5, T647A (GluN2B) mutant NMDA channel (Rattus norvegicus, UniProt P35439+Q00960, T647A); assay: Outside-out patch recordings, T647A (GluN2B) mutant NMDA channel; format: cell-based; conditions: 30 μM Cd2+
T5 construct: expressed in transfected cells; host or cells: Xenopus laevis oocytes (cRNA injection)
Description: as §1, §2, §4

[8] = Fig. 5e inset, read-out: apparent dissociation constant, closed channel, derived from relative peak current in 30 μM Cd2+
[9] = Fig. 6e inset, read-out: apparent dissociation constant, activated channel, derived from relative sustained current in 30 μM Cd2+

T2 sequence (Q00960 27-1482, other chains not shown): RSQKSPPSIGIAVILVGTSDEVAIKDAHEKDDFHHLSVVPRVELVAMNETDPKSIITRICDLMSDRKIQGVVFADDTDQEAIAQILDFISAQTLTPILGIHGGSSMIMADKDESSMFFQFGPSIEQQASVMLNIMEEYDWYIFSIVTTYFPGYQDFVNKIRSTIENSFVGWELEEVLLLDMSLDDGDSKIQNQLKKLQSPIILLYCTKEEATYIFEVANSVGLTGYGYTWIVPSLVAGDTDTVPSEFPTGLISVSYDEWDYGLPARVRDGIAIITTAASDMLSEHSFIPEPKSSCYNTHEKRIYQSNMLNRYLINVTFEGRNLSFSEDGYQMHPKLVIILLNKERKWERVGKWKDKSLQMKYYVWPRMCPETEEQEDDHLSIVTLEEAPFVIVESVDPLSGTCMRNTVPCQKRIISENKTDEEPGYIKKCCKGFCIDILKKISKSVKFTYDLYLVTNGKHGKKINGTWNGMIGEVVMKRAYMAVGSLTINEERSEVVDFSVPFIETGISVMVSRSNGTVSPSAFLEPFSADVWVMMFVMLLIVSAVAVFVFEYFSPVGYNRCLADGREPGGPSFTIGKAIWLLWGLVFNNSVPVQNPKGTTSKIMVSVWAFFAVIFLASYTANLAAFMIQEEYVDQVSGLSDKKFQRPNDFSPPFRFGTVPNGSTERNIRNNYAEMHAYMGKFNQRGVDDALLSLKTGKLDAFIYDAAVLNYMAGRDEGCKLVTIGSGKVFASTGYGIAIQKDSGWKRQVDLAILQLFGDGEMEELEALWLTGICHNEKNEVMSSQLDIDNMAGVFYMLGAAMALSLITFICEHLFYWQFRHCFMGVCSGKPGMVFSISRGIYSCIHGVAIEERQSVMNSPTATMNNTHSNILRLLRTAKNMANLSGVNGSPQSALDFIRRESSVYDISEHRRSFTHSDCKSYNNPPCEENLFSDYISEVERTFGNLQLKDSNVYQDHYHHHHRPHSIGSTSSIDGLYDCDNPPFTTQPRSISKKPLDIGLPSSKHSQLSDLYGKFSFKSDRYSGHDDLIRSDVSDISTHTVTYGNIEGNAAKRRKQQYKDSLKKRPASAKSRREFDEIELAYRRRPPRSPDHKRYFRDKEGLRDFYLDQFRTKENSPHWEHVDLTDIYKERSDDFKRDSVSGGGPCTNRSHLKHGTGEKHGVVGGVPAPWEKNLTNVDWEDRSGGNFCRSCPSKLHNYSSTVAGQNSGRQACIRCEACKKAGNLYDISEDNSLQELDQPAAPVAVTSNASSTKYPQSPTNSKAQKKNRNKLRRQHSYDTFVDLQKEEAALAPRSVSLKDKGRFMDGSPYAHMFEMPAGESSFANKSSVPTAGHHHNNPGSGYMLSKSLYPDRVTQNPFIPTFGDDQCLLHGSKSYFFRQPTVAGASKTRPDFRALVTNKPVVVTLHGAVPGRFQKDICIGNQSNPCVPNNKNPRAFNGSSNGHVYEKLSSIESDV
T1 sequence (Q00960 27-1482, other chains not shown): as above
T4 sequence (Q00960 27-1482, other chains not shown): as above

## [Cd+2] [Cd^2+]
[1]; 3 μM Cd2+, n = 4
  shift of the activation curve: moderate leftward shift
  shift of the desensitization curve: moderate leftward shift
[1]; 30 μM Cd2+ vs 2 mM Ca2+ in the extracellular milieu
  effect on NMDAR currents relative to 2 mM Ca2+: stronger effects than 2 mM Ca^2+
[1]; activated (steady-state mixture of open and desensitized) channel, Cd2+ during the NMDA pulse, Fig. 3b, n = 7, read-out: apparent dissociation constant (Kd), Hill fit of relative sustained current
  Kd: ~1.6 µM
[1]; activated channel, sustained current, mean ± SEM, read-out: Kd from fits of each individual data set, Fig. 3b
  Kd: 1.4 ± 0.16 µM
[1]; activated channel, Fig. 3b
  Hill coefficient n, relative sustained current: 1
[1]; activated channel, essentially zero, n = 4
  slope of unbinding rates against Cd2+ concentration: ~ 0.01 M^−1s^−1
[1]; activated channel, fast application of Cd2+, n = 4
  macroscopic on rate (slope of binding rates against Cd2+ concentration): 430000 M⁻¹ s⁻¹
[1]; activated channel, linear regression, n = 4
  intercept of binding rates against Cd2+ concentration: 9.4 s⁻¹
[1]; activated channel, wash-off of Cd2+, n = 4
  macroscopic off rate (intercept of unbinding rates): 6.8 s⁻¹
[1]; closed (resting) channel, Cd2+ applied in the interpulse phase, Fig. 2b, n = 7, read-out: apparent dissociation constant (Kd), Hill fit of relative peak current
  Kd: 6 µM and ~6 µM
[1]; closed channel, activation speed, mean ± SEM, read-out: Kd from fits of each individual data set, Fig. 2d
  Kd: 3.4 ± 0.66 µM
[1]; closed channel, peak current, mean ± SEM, read-out: Kd from fits of each individual data set, Fig. 2b
  Kd: 7.6 ± 1.2 µM
[1]; closed channel, Cd2+ in the interpulse phase, Fig. 2d, n = 4, read-out: apparent dissociation constant (Kd), Hill fit of relative initial activation speed
  Kd: 4.5 µM and ~4.5 µM
[1]; closed channel, Fig. 2b
  Hill coefficient n, relative peak current: 1
[1]; closed channel, Fig. 2d
  Hill coefficient n, relative activation speed: 1
[1]; equal to KCd2+,o × m/r from model fits in 3 μM Cd2+, not a precise estimate, read-out: KCd2+,d (dissociation constant for Cd2+ binding to the desensitized NMDA channel)
  Kd: 1.25 µM
[1]; model fit (equations 2 and 4) to activation and desensitization data in 3 μM Cd2+, not a precise estimate, read-out: KCd2+,o (dissociation constant for Cd2+ binding to the open NMDA channel)
  Kd: 2.5 µM
[1]; model fit to activation and desensitization data in 3 μM Cd2+, m set at 4
  r value, r = m × (KCd2+,o/KCd2+,d): 8
[1]; ratio between the macroscopic off rate and on rate, Fig. 4a inset, read-out: rough estimate of the dissociation constant of Cd2+ to the open state
  Kd: ~16 µM
[1]; wild-type, Hill coefficient of 1 assumed, Fig. 5e inset, read-out: apparent dissociation constant, closed channel, derived from relative peak current in 30 μM Cd2+
  Kd: 19.6 µM
[1]; wild-type, Hill coefficient of 1 assumed, Fig. 6e inset, read-out: apparent dissociation constant, activated channel, derived from relative sustained current in 30 μM Cd2+
  Kd: 3.2 µM
[2]; [8]
  Kd: 40.7 µM
[2]; [9]
  Kd: 7.7 µM
[3]; [8]
  Kd: 37.3 µM
[3]; [9]
  Kd: 5.6 µM
[4]; Cd2+ binding to the activated NMDA channel
  coupling coefficient ((KdWT × KdE661AE662A)/(KdE661A × KdE662A)), double mutant cycle analysis: 1.03
[4]; Cd2+ binding to the closed NMDA channel
  coupling coefficient ((KdWT × KdE661AE662A)/(KdE661A × KdE662A)), double mutant cycle analysis: 0.90
[4]; [8]
  Kd: 70.2 µM
[4]; [9]
  Kd: 13.9 µM
[5]
  effect on peak current, closed channel, compared with WT: less pronounced
[6]; 30 μM Cd2+ between NMDA pulses, P = 0.0093
  effect on peak current, closed channel, compared with WT: less pronounced
[6]; 30 μM Cd2+ during NMDA pulse, P = 0.00031
  effect on sustained current, activated channel, compared with WT: less pronounced
[7]; P = 0.00012
  relative hook current after wash-off of agonists and blocking cation, compared with WT channel: significantly larger hook current
[7]; n = 8 vs WT n = 6, P = 0.00037
  inhibitory effect on sustained current (relative current) compared with WT channel: significantly smaller effect

## CN[C@H](CC(=O)O)C(=O)O [NMDA]
[1]; read-out: apparent dissociation constant of NMDA (KN), fit to activation data
  Kd: 47 µM
[1]; read-out: apparent dissociation constant of NMDA (KN), fit to desensitization data
  Kd: 35 µM
